Results from ChEMBL document CHEMBL6109086, “Discovery and biological evaluation of hederagenin derivatives as non-substrate inhibitors of P-glycoprotein-mediated multidrug resistance” (Eur J Med Chem, 2025).

Legend:
[1] = Reversal of multi-drug resistance in human KBV cells assessed as paclitaxel induced cytotoxicity by measuring cell survival at 10 uM measured after 72 hrs by MTT assay relative to control; format: functional
[2] = Cytotoxicity against human KBV cells assessed as paclitaxel induced cytotoxicity by measuring cell survival at 10 uM measured after 72 hrs by MTT assay relative to control; format: functional

SMILES: COC(=O)C[C@H](NC(=O)COC(=O)[C@]12CCC(C)(C)C[C@H]1C1=CC[C@@H]3[C@@]4(C)Cc5nccnc5[C@@](C)(CO)[C@@H]4CC[C@@]3(C)[C@]1(C)CC2)C(=O)OC
- Activity [1]: 35.97%
- Activity [2]: 79.2%

SMILES: CC1(C)CC[C@]2(C(=O)OCC(=O)OCc3ccncc3)CC[C@]3(C)C(=CC[C@@H]4[C@@]5(C)Cc6nccnc6[C@@](C)(CO)[C@@H]5CC[C@]43C)[C@@H]2C1
- Activity [1]: 46.31%
- Activity [2]: 109.15%

SMILES: CC1(C)CC[C@]2(C(=O)OCC(=O)OCc3cnccn3)CC[C@]3(C)C(=CC[C@@H]4[C@@]5(C)Cc6nccnc6[C@@](C)(CO)[C@@H]5CC[C@]43C)[C@@H]2C1
- Activity [1]: 53.78%
- Activity [2]: 121.45%

SMILES: CC1(C)CC[C@]2(C(=O)NCCCC(=O)OCCOCCO)CC[C@]3(C)C(=CC[C@@H]4[C@@]5(C)Cc6nccnc6[C@@](C)(CO)[C@@H]5CC[C@]43C)[C@@H]2C1
- Activity [1]: 70.13%
- Activity [2]: 91.43%

SMILES: CC1(C)CC[C@]2(C(=O)OCC(=O)OCc3ncco3)CC[C@]3(C)C(=CC[C@@H]4[C@@]5(C)Cc6nccnc6[C@@](C)(CO)[C@@H]5CC[C@]43C)[C@@H]2C1
- Activity [1]: 26.03%
- Activity [2]: 62.38%

SMILES: CC1(C)CC[C@]2(C(=O)NCC(=O)OCCOCCOCCOCCOCCOCCOCCOCCOCCO)CC[C@]3(C)C(=CC[C@@H]4[C@@]5(C)Cc6nccnc6[C@@](C)(CO)[C@@H]5CC[C@]43C)[C@@H]2C1
- Activity [1]: 74.02%
- Activity [2]: 79.04%

SMILES: CC1(C)CC[C@]2(C(=O)OCC(=O)NCc3ncccn3)CC[C@]3(C)C(=CC[C@@H]4[C@@]5(C)Cc6nccnc6[C@@](C)(CO)[C@@H]5CC[C@]43C)[C@@H]2C1
- Activity [1]: 39.38%
- Activity [2]: 90.35%

SMILES: CC1(C)CC[C@]2(C(=O)NCC(=O)OCCOCCOCCO)CC[C@]3(C)C(=CC[C@@H]4[C@@]5(C)Cc6nccnc6[C@@](C)(CO)[C@@H]5CC[C@]43C)[C@@H]2C1
- Activity [1]: 67.88%
- Activity [2]: 86.82%

SMILES: COC(=O)[C@H](Cc1ccccc1)NC(=O)COC(=O)[C@]12CCC(C)(C)C[C@H]1C1=CC[C@@H]3[C@@]4(C)Cc5nccnc5[C@@](C)(CO)[C@@H]4CC[C@@]3(C)[C@]1(C)CC2
- Activity [1]: 38.69%
- Activity [2]: 90.77%

SMILES: COC(=O)[C@H](CC(C)C)NC(=O)COC(=O)[C@]12CCC(C)(C)C[C@H]1C1=CC[C@@H]3[C@@]4(C)Cc5nccnc5[C@@](C)(CO)[C@@H]4CC[C@@]3(C)[C@]1(C)CC2
- Activity [1]: 38.41%
- Activity [2]: 85.1%

SMILES: COC(=O)[C@H](CCSC)NC(=O)COC(=O)[C@]12CCC(C)(C)C[C@H]1C1=CC[C@@H]3[C@@]4(C)Cc5nccnc5[C@@](C)(CO)[C@@H]4CC[C@@]3(C)[C@]1(C)CC2
- Activity [1]: 37.17%
- Activity [2]: 79.95%

SMILES: COC(=O)CC[C@H](NC(=O)COC(=O)[C@]12CCC(C)(C)C[C@H]1C1=CC[C@@H]3[C@@]4(C)Cc5nccnc5[C@@](C)(CO)[C@@H]4CC[C@@]3(C)[C@]1(C)CC2)C(=O)OC
- Activity [1]: 40.07%
- Activity [2]: 92.53%

SMILES: CC1(C)CC[C@]2(C(=O)NCC(=O)OCCOCCOCCOCCOCCO)CC[C@]3(C)C(=CC[C@@H]4[C@@]5(C)Cc6nccnc6[C@@](C)(CO)[C@@H]5CC[C@]43C)[C@@H]2C1
- Activity [1]: 78.98%
- Activity [2]: 77.18%

SMILES: CC1(C)CC[C@]2(C(=O)NCCCC(=O)OCCOCCOCCOCCOCCO)CC[C@]3(C)C(=CC[C@@H]4[C@@]5(C)Cc6nccnc6[C@@](C)(CO)[C@@H]5CC[C@]43C)[C@@H]2C1
- Activity [1]: 27.02%
- Activity [2]: 94.86%

SMILES: CC(C)C[C@H](N)C(=O)NCC(=O)NCCNC(=O)[C@]12CCC(C)(C)C[C@H]1C1=CC[C@@H]3[C@@]4(C)Cc5nccnc5[C@@](C)(CO)[C@@H]4CC[C@@]3(C)[C@]1(C)CC2
- Activity [1]: 96.68%
- Activity [2]: 98.91%

SMILES: CC1(C)CC[C@]2(C(=O)OCC(=O)NCc3ccccn3)CC[C@]3(C)C(=CC[C@@H]4[C@@]5(C)Cc6nccnc6[C@@](C)(CO)[C@@H]5CC[C@]43C)[C@@H]2C1
- Activity [1]: 33.22%
- Activity [2]: 82.98%

SMILES: CC1(C)CC[C@]2(C(=O)OCC(=O)NCc3cccs3)CC[C@]3(C)C(=CC[C@@H]4[C@@]5(C)Cc6nccnc6[C@@](C)(CO)[C@@H]5CC[C@]43C)[C@@H]2C1
- Activity [1]: 25.86%
- Activity [2]: 54.97%

SMILES: CC1(C)CC[C@]2(C(=O)NCCCC(=O)OCCOCCOCCOCCO)CC[C@]3(C)C(=CC[C@@H]4[C@@]5(C)Cc6nccnc6[C@@](C)(CO)[C@@H]5CC[C@]43C)[C@@H]2C1
- Activity [1]: 28.96%
- Activity [2]: 93.67%

SMILES: C[C@H](N)C(=O)N[C@@H](C)C(=O)NCCNC(=O)[C@]12CCC(C)(C)C[C@H]1C1=CC[C@@H]3[C@@]4(C)Cc5nccnc5[C@@](C)(CO)[C@@H]4CC[C@@]3(C)[C@]1(C)CC2
- Activity [1]: 28.53%
- Activity [2]: 92.74%

SMILES: CC(C)[C@H](N)C(=O)NCC(=O)NCCNC(=O)[C@]12CCC(C)(C)C[C@H]1C1=CC[C@@H]3[C@@]4(C)Cc5nccnc5[C@@](C)(CO)[C@@H]4CC[C@@]3(C)[C@]1(C)CC2
- Activity [1]: 27.74%
- Activity [2]: 97.4%

SMILES: CC1(C)CC[C@]2(C(=O)NCC(=O)OCCOCCO)CC[C@]3(C)C(=CC[C@@H]4[C@@]5(C)Cc6nccnc6[C@@](C)(CO)[C@@H]5CC[C@]43C)[C@@H]2C1
- Activity [1]: 84.84%
- Activity [2]: 94.99%

SMILES: CC1(C)CC[C@]2(C(=O)NCCCC(=O)OCCOCCOCCO)CC[C@]3(C)C(=CC[C@@H]4[C@@]5(C)Cc6nccnc6[C@@](C)(CO)[C@@H]5CC[C@]43C)[C@@H]2C1
- Activity [1]: 63.88%
- Activity [2]: 96.02%

SMILES: CC1(C)CC[C@]2(C(=O)OCC(=O)NCC3CCOCC3)CC[C@]3(C)C(=CC[C@@H]4[C@@]5(C)Cc6nccnc6[C@@](C)(CO)[C@@H]5CC[C@]43C)[C@@H]2C1
- Activity [1]: 30.34%
- Activity [2]: 78.91%

SMILES: CC1(C)CC[C@]2(C(=O)OCC(=O)NCc3cnccn3)CC[C@]3(C)C(=CC[C@@H]4[C@@]5(C)Cc6nccnc6[C@@](C)(CO)[C@@H]5CC[C@]43C)[C@@H]2C1
- Activity [1]: 40.44%
- Activity [2]: 97.94%

SMILES: CC1(C)CC[C@]2(C(=O)NCCNC(=O)CNC(=O)CN)CC[C@]3(C)C(=CC[C@@H]4[C@@]5(C)Cc6nccnc6[C@@](C)(CO)[C@@H]5CC[C@]43C)[C@@H]2C1
- Activity [1]: 87.67%
- Activity [2]: 91.41%

SMILES: CC1(C)CC[C@]2(C(=O)NCC(=O)OCCOCCOCCOCCO)CC[C@]3(C)C(=CC[C@@H]4[C@@]5(C)Cc6nccnc6[C@@](C)(CO)[C@@H]5CC[C@]43C)[C@@H]2C1
- Activity [1]: 83.46%
- Activity [2]: 90.96%

SMILES: CC1(C)CC[C@]2(C(=O)OCC(=O)OCc3nccs3)CC[C@]3(C)C(=CC[C@@H]4[C@@]5(C)Cc6nccnc6[C@@](C)(CO)[C@@H]5CC[C@]43C)[C@@H]2C1
- Activity [1]: 43.84%
- Activity [2]: 105.92%

SMILES: CC(C)[C@H](N)C(=O)N[C@H](C(=O)NCCNC(=O)[C@]12CCC(C)(C)C[C@H]1C1=CC[C@@H]3[C@@]4(C)Cc5nccnc5[C@@](C)(CO)[C@@H]4CC[C@@]3(C)[C@]1(C)CC2)C(C)C
- Activity [1]: 89.43%
- Activity [2]: 87.47%

SMILES: CC1(C)CC[C@]2(C(=O)OCC(=O)OCC3CCO3)CC[C@]3(C)C(=CC[C@@H]4[C@@]5(C)Cc6nccnc6[C@@](C)(CO)[C@@H]5CC[C@]43C)[C@@H]2C1 (stereo partly drawn)
- Activity [1]: 48.06%
- Activity [2]: 106.82%
